Patent US8017772B2, “Substituted tetrahydropyrrolopyrazine compounds and the use thereof in the treatment and/or inhibition of pain” (Gruenenthal GmbH, priority 2006, dated 2011)

What was measured:
[1] = biological target: hKCNQ2/3 (Homo sapiens, UniProt O43525+O43526); test: Fluorescence assay using a voltage sensitive dye (BMG); type: cell-based; conditions: agonistic activity at 10 μM, CHO-K1 cells expressing KCNQ2/3; read-out: BMG AG %@10 μm
Method: 11. Biological Data 12. Fluorescence Assay Using a Voltage Sensitive Dye
Human CHO-K1 cells expressing KCNQ2/3 channels are cultivated adherently at 37° C., 5% CO2 and 95% humidity in cell culture bottles (e.g. 80 cm^2 TC flasks, Nunc) with MEM Alpha Medium (1×, liquid, Invitrogen, #22571), 10% fetal calf serum (FCS) (Invitrogen, #10270-106, heat-inactivated) and the necessary selection antibiotics.
Before being sown out for the measurements, the cells are washed with a 1×DPBS buffer without Ca^2+/Mg^2+ (e.g. Invitrogen, #14190-094) and detached from the bottom of the culture vessel by means of Accutase (PAA Laboratories, #L11-007) (incubation with Accutase for 15 min at 37° C.). The cell count then present is determined using a CASY™ cell counter (TCC model, Schärfe System) in order subsequently to apply 20,000 cells/well/100 μl of the described nutrient medium to 96-well measuring plates of the Corning™ CellBIND™ type (Flat Clear Bottom Black Polystyrene Microplates, #3340). Incubation is then carried out for one hour at room temperature, without gassing or adjusting the humidity, followed by incubation for 24 hours at 37° C., 5% CO2 and 95% humidity.
The voltage-sensitive fluorescent dye from the Membrane Potential Assay Kit (Red™ Bulk format part R8123 for FLIPR, Molecular Devices™) is prepared by dissolving the contents of a vessel Membrane Potential Assay Kit Red Component A in 200 ml of extracellular buffer (ES buffer, 120 mM NaCl, 1 mM KCl, 10 mM HEPES, 2 mM CaCl2, 2 mM MgCl2, 10 mM glucose; pH 7.4). After removal of the nutrient medium, the cells are washed with 200 μl of ES buffer, then covered with a layer of 100 μl of the dye solution prepared above and incubated for 45 min at room temperature with the exclusion of light.
The fluorescence measurements are carried out with a BMG Labtech FLUOstar™ or BMG Labtech POLARstar™ instrument (525 nm excitation, 560 nm emission, Bottom Read mode). After incubation of the dye, […] of the test substances in the desired concentrations, or 50 μl of ES buffer for control purposes, are introduced into separate cavities of the measuring plate and incubated for 30 min at room temperature while being shielded from light. The fluorescence intensity of the dye is then measured for 5 min and the fluorescence value F1 of each well is thus determined at a given, constant time. 15 μl of a […] KCl solution ([…]) are then added to each well. The change in fluorescence is subsequently measured until all the relevant measured values have been obtained (mainly 5-30 min). At a given time after KCl application, a fluorescence value F2 is determined, in this case at the time of the fluorescence peak.
For calculation, the fluorescence intensity F2 is compared with the fluorescence intensity F1, and the agonistic activity of the target compound on the potassium channel is determined therefrom. F2 and F1 are calculated as follows:
[formula] In order to determine whether a substance has an agonistic effect,
[formula] for example, can be compared with
[formula] determined by adding to the reaction batch only the buffer solution instead of the substance to be tested, determining the value F1K of the fluorescence intensity, adding the potassium ions as described above and measuring a value F2K of the fluorescence intensity. Then F2K and F1K are calculated as follows: […]
A substance has an agonistic activity on the potassium channel when
[formula] is greater than
[formula] Independently of the comparison of
[formula] it is also possible to conclude that a target compound has agonistic activity if an increase in
[formula] is to be observed as the dosage of the target compound increases. Calculations of EC50 and IC50 values are carried out with the aid of “Prism 4” software (GraphPad Software™). The following compounds were tested by way of example: […]

[2] = test system: mononeuropathic pain (mechanical allodynia); test: Chung model: mononeuropathic pain after spinal nerve ligation (mechanical allodynia); type: in vivo, Sprague-Dawley rats; conditions: Rattus norvegicus, iv; i.v. administration
Method: Chung Model: Mononeuropathic Pain after Spinal Nerve Ligation
Animals: Male Sprague-Dawley rats (140-160 g) from a commercial breeder (Janvier, Genest St. Isle, France) were kept under a 12:12 h light-dark rhythm. The animals received food and tap water ad libitum. A period of one week was observed between delivery of the animals and the operation. After the operation, the animals were tested several times over a period of 4-5 weeks, a washing-out time of at least one week being observed. Description of the model: Under pentobarbital narcosis (Narcoren®, 60 mg/kg i.p., Merial GmbH, Hallbergmoos, Germany), the left L5, L6 spinal nerves were exposed by removing a section of the paravertebral muscle and a section of the left spinous process of the L5 lumbar vertebral body. […] The pull-back threshold was measured on the ipsi- and/or contra-lateral rear paw by means of an electronic from Frey Filamentes (Somedic A B, Malmö, Sweden). […] The data were determined as % maximum possible effect (% MPE) from the preliminary tests on the individual animals (=0 MPE) and the test values of an independent sham control group (=100% MPE). […] The data were analyzed by variance analysis with repeated measurements and a post hoc analysis according to Bonferroni. […]

[3] = test system: neuropathic pain (cold allodynia); test: Bennett model: neuropathic pain (chronic constriction injury, cold allodynia); type: in vivo, mouse or rat; conditions: i.v. administration, dose 10 mg/kg
Method: Bennett Model: Neuropathic Pain in the Mouse and in the Rat The study of activity in neuropathic pain was carried out in the Bennett model (chronic constriction injury; Bennett and Xie, 1988, Pain 33: 87-107). Sprague-Dawley rats weighing 140-160 g are provided, under Narcoren narcosis, with four loose ligations of the right nervus ischiaticus. NMRI mice weighing 16-18 g are provided, under Ketavet-Rompun narcosis, with three loose ligations of the right nervus ischiaticus. The animals develop hypersensitivity of the paw innervated by the damaged nerve, and after a one-week recovery phase, the hypersensitivity is quantified over a period of about four weeks by means of a 4° C. cold metal plate (cold allodynia). The animals are observed on the plate for a period of 2 min and the number of reactions of pulling away the damaged paw is measured. […] The size of the group is n=10, the significance of an anti-allodynic action (*=p<0.05) is determined by means of a variance analysis with repeated measurement and a post hoc analysis according to Bonferroni.

activation at 10 µM [1]: 84%
Compound: O=C(CCC(=O)N1CCn2cccc2C1c1ccccc1)NCc1cccc(C(F)(F)F)c1 (stereo not drawn) [Example 2, 4-oxo-4-(1-phenyl-3,4-dihydro-1H-pyrrolo[1,2-a]pyrazin-2-yl)-N-(3-trifluoromethyl-benzyl)-butyramide]
ED50 [2]: 2.8 mg/kg
% MPE in the Bennett model [3]: 40 % MPE
